Reference: patent publication US20240228488A1 (TAKEDA PHARMACEUTICAL COMPANY LIMITED, priority 2021, published 2024)
pEC50: −log10 of the molar value.

Experiments:
[1] = molecular target: human activated kallikrein enzyme (Homo sapiens, UniProt P03952); assay: Plasma kallikrein inhibition, fluorogenic PFR-AMC substrate, 500 pM activated kallikrein format; format: biochemical; settings: 500 pM activated kallikrein, 300 uM PFR-AMC, 30 min preincubation, 10 min reaction; read-out: Primary Dose Response Assay: Average EC50
Chain of human activated kallikrein enzyme (P03952 391-638 limits assumed): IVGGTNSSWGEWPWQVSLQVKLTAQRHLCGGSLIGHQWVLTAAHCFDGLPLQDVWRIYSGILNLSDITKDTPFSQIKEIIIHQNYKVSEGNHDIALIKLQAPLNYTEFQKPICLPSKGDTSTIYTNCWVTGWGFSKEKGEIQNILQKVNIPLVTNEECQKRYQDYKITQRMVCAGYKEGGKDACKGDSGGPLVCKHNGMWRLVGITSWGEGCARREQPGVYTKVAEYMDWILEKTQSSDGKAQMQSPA
Chain of human activated kallikrein enzyme (P03952 20-390 partner limits assumed): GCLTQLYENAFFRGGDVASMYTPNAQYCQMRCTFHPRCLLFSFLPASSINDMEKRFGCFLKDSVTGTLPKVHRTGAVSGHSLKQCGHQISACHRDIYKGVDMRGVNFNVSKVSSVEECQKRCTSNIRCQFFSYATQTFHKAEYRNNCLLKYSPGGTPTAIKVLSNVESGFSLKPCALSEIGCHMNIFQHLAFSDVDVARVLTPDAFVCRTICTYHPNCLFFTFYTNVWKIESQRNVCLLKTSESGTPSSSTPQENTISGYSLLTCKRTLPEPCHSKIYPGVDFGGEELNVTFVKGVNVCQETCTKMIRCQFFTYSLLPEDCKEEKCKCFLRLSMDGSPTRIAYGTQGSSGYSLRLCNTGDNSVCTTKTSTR
Method in brief: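 Enzyme (500 pM) was preincubated with inhibitor for 30 min at room temperature in 20 mM Tris pH 7.5, 1 mM EDTA, 150 mM NaCl, 0.1% PEG-400 and 0.1% Triton X-100. The reaction was started with 300 uM PFR-AMC, run 10 min, and fluorescence read at 460 nm (380 nm excitation). EC50 derived.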

[2] = molecular target: T1, plasma kallikrein (Homo sapiens, UniProt P03952); assay: Neat human plasma assay, FXIIa contact pathway-activated, PFR-AMC substrate; format: biochemical; settings: citrated human plasma 78% final, 10 nM human FXIIa, 100 μM PFR-AMC; read-out: Human Plasma Assay: IC90
T1 construct: from tissue
T1 sequence (P03952 391-638 limits assumed): as the sequence (P03952 391-638 limits assumed) above
T1 sequence (P03952 20-390 partner limits assumed): as the sequence (P03952 20-390 partner limits assumed) above
Method in brief: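 Citrated human plasma (78% final) with compound, contact-activated by 10 nM human FXIIa in pKal buffer pH 7.5, with 100 μM PFR-AMC. Fluorescence (360/480 nm) followed 5 min at room temperature; rates versus concentration fitted by 4-parameter equation for IC50/IC90.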

| SMILES | pEC50 [1] | IC90 [2] [nM] |
| --- | --- | --- |
| Cc1ccnc([C@H]2C[C@@H]2C(=O)Nc2cc(NCc3cn4cc(C5CC5)cc(N5CC(=O)N(C)C5=O)c4n3)cnn2)n1 (racemic) [Example 617, rac-(1S*,2S*)—N-(5-(((6-cyclopropyl-8-(3-methyl-2,4-dioxoimidazolidin-1-yl)imidazo[1,2-a]pyridin-2-yl)methyl)amino)pyridazin-3-yl)-2-(4-methylpyrimidin-2-yl)cyclopropane-1-carboxamide] | > 9.00 | < 400 |
| Cc1ccnc([C@H]2C[C@@H]2C(=O)Nc2cc(NC(C)c3cn4cc(C5CC5)cc(S(C)(=O)=O)c4n3)nc(C)n2)n1 (stereo partly drawn) [Example 363, (1S,2S)-N-(6-((1-(6-cyclopropyl-8-(methylsulfonyl)imidazo[1,2-a]pyridin-2-yl)ethyl)amino)-2-methylpyrimidin-4-yl)-2-(4-methylpyrimidin-2-yl)cyclopropane-1-carboxamide] | > 9.00 | 1500 to 10000 |
| O=C(Nc1cc(NCc2cn3cc(C4CC4)ccc3n2)ccn1)[C@H]1C[C@@H]1c1cc(Cl)cs1 (racemic) [Example I-219, rac-(1S*,2S*)-2-(4-chlorothiophen-2-yl)-N-(4-(((6-cyclopropylimidazo[1,2-a]pyridin-2-yl)methyl)amino)pyridin-2-yl)cyclopropane-1-carboxamide] | 8.00 to 9.00 | 10000 to 48000 |
| CN1CCC(Oc2cc(C3CC3)cn3cc(CNc4cc(NC(=O)[C@H]5C[C@@H]5c5cccc(Cl)c5)ncn4)nc23)C1=O (stereo partly drawn) [Example I-147, (1S,2S)-2-(3-chlorophenyl)-N-(6-(((6-cyclopropyl-8-((1-methyl-2-oxopyrrolidin-3-yl)oxy)imidazo[1,2-a]pyridin-2-yl)methyl)amino)pyrimidin-4-yl)cyclopropane-1-carboxamide] | 8.00 to 9.00 | 1500 to 10000 |
| O=C(Nc1cc(NCc2cn3cc(C4CC4)cc(C(O)C4CNC4)c3n2)ccn1)[C@H]1C[C@@H]1c1cccc(Cl)c1 (stereo partly drawn) [Example 135, (1S,2S)—N-(4-(((8-(-azetidin-3-yl(hydroxy)methyl)-6-cyclopropylimidazo[1,2-a]pyridin-2-yl)methyl)amino)pyridin-2-yl)-2-(3-chlorophenyl)cyclopropane-1-carboxamide] | > 9.00 | < 400 |
| CN1C(=O)CN(c2cc(C3CC3)cn3cc(CNc4cc(NC(=O)[C@H]5C[C@@H]5c5nccc(C(F)F)n5)ncn4)nc23)C1=O (racemic) [Example I-164, rac-(1S*,2S*)-N-(6-(((6-cyclopropyl-8-(3-methyl-2,4-dioxoimidazolidin-1-yl)imidazo[1,2-a]pyridin-2-yl)methyl)amino)pyrimidin-4-yl)-2-(4-(difluoromethyl)pyrimidin-2-yl)cyclopropane-1-carboxamide] | 8.00 to 9.00 | 400 to 1500 |
| Cc1ccnc([C@H]2C[C@@H]2C(=O)Nc2cc(OCc3cn4cc(C5CC5)cc(N5CC(=O)N(C)C5=O)c4n3)nc(C)n2)n1 [Example 555, (1S,2S)-N-(6-((6-cyclopropyl-8-(3-methyl-2,4-dioxoimidazolidin-1-yl)imidazo[1,2-a]pyridin-2-yl)methoxy)-2-methylpyrimidin-4-yl)-2-(4-methylpyrimidin-2-yl)cyclopropane-1-carboxamide] | > 9.00 | 400 to 1500 |
| Cc1ccnc([C@H]2C[C@@H]2C(=O)Nc2cc(N3C[C@@H](O)C[C@@H]3c3cn4cc(C5CC5)cc(N5CC6CC6C5=O)c4n3)ncn2)n1 (relative stereo) [Example 482, rac-(1S*,2S*)—N-(6-((2R,4S)-2-(6-cyclopropyl-8-(2-oxo-3-azabicyclo[3.1.0]hexan-3-yl)imidazo[1,2-a]pyridin-2-yl)-4-hydroxypyrrolidin-1-yl)pyrimidin-4-yl)-2-(4-methylpyrimidin-2-yl)cyclopropane-1-carboxamide] | > 9.00 | 400 to 1500 |
| O=C(Nc1ncnc(NCc2cn3cc(C4CC4)ccc3n2)n1)[C@H]1C[C@@H]1c1cccc(Cl)c1 (racemic) [Example 344, (rac-(1S*,2S*))-2-(3-chlorophenyl)-N-(4-(((6-cyclopropylimidazo[1,2-a]pyridin-2-yl)methyl)amino)-1,3,5-triazin-2-yl)cyclopropane-1-carboxamide] | 8.00 to 9.00 | 1500 to 10000 |
| Cc1ccnc([C@@]2(F)C[C@@H]2C(=O)Nc2cc(NCc3cn4cc(C5CC5)cc(N5CC(=O)N(C)C5=O)c4n3)ncn2)n1 (racemic) [Example 496, rac-(1S*,2S*)-N-(6-(((6-cyclopropyl-8-(3-methyl-2,4-dioxoimidazolidin-1-yl)imidazo[1,2-a]pyridin-2-yl)methyl)amino)pyrimidin-4-yl)-2-fluoro-2-(4-methylpyrimidin-2-yl)cyclopropane-1-carboxamide] | > 9.00 | < 400 |
| Cc1ccnc([C@H]2C[C@@H]2C(=O)Nc2cc(NC(C)c3cn4cc(C5CC5)cc(N5CC(=O)N(C)C5=O)c4n3)ncn2)n1 (relative stereo) [Example 449, rac-(1S*,2S*)—N-(6-((1-(6-cyclopropyl-8-(3-methyl-2,4-dioxoimidazolidin-1-yl)imidazo[1,2-a]pyridin-2-yl)ethyl)amino)pyrimidin-4-yl)-2-(4-methylpyrimidin-2-yl)cyclopropane-1-carboxamide] | > 9.00 | 1500 to 10000 |
| Cc1ccnc([C@H]2C[C@@H]2C(=O)Nc2cc(OCc3cn4cc(C5CC5)cc(N5CC(=O)N(C)C5=O)c4n3)nc(OCCN(C)C)n2)n1 [Example 563, (1S,2S)—N-(6-((6-cyclopropyl-8-(3-methyl-2,4-dioxoimidazolidin-1-yl)imidazo[1,2-a]pyridin-2-yl)methoxy)-2-(2-(dimethylamino)ethoxy)pyrimidin-4-yl)-2-(4-methylpyrimidin-2-yl)cyclopropane-1-carboxamide] | > 9.00 | < 400 |
| O=C(Nc1cc(N2C[C@@H](O)C[C@@H]2c2cn3cc(C4CC4)ccc3n2)ncn1)[C@H]1C[C@@H]1c1cccc(Cl)c1 [Example 283, (1S,2S)-2-(3-chlorophenyl)-N-(6-((2R,4S)-2-(6-cyclopropylimidazo[1,2-a]pyridin-2-yl)-4-hydroxypyrrolidin-1-yl)pyrimidin-4-yl)cyclopropane-1-carboxamide] | 8.00 to 9.00 | 1500 to 10000 |
| Cc1ccnc([C@H]2C[C@@H]2C(=O)Nc2nc(C)nc(OCc3cn4cc(C5CC5)cc(N5CC(=O)N(C)C5=O)c4n3)n2)n1 [Example 573, (1S,2S)—N-(4-((6-cyclopropyl-8-(3-methyl-2,4-dioxoimidazolidin-1-yl)imidazo[1,2-a]pyridin-2-yl)methoxy)-6-methyl-1,3,5-triazin-2-yl)-2-(4-methylpyrimidin-2-yl)cyclopropane-1-carboxamide] | > 9.00 | 400 to 1500 |
| CC(C)c1ccc2nc(CNc3ccnc(NC(=O)[C@H]4C[C@@H]4c4cccc(Cl)c4)c3)cn2c1 [Example 123, (1S,2S)-2-(3-chlorophenyl)-N-(4-(((6-isopropylimidazo[1,2-a]pyridin-2-yl)methyl)amino)pyridin-2-yl)cyclopropane-1-carboxamide] | > 9.00 | 10000 to 48000 |
| Cc1ccnc([C@H]2C[C@@H]2C(=O)Nc2nccc(N3C[C@@H](O)C[C@@H]3c3cn4cc(C5CC5)cc(N5CC(=O)N(C)C5=O)c4n3)n2)n1 (relative stereo) [Example 541, rac-(1S*,2S*)—N-(4-((2R,4S)-2-(6-cyclopropyl-8-(3-methyl-2,4-dioxoimidazolidin-1-yl)imidazo[1,2-a]pyridin-2-yl)-4-hydroxypyrrolidin-1-yl)pyrimidin-2-yl)-2-(4-methylpyrimidin-2-yl)cyclopropane-1-carboxamide] | > 9.00 | 400 to 1500 |
| Cc1ccnc([C@H]2C[C@@H]2C(=O)Nc2cc(N[C@H](C)c3cn4cc(C5CC5)cc(N5CC(=O)N(C)C5=O)c4n3)nc(C)n2)n1 (single isomer, unassigned) [Example 456] | > 9.00 | < 400 |
| CCN1C(=O)CN(c2cc(C3CC3)cn3cc(CNc4cc(NC(=O)[C@H]5C[C@@H]5c5nccc(C)n5)ncn4)nc23)C1=O [Example 385, (1S,2S)-N-(6-(((6-cyclopropyl-8-(3-ethyl-2,4-dioxoimidazolidin-1-yl)imidazo[1,2-a]pyridin-2-yl)methyl)amino)pyrimidin-4-yl)-2-(4-methylpyrimidin-2-yl)cyclopropane-1-carboxamide] | > 9.00 | < 400 |
| CC(=O)N(C)c1cc(C2CC2)cn2cc(CNc3ccnc(NC(=O)[C@H]4C[C@@H]4c4cccc(Cl)c4)c3)nc12 [Example 139, (1S,2S)-2-(3-chlorophenyl)-N-(4-(((6-cyclopropyl-8-(N-methylacetamido)imidazo[1,2-a]pyridin-2-yl)methyl)amino)pyridin-2-yl)cyclopropane-1-carboxamide] | > 9.00 | 400 to 1500 |
| CN1CCN(c2cc(C3CC3)cn3cc(CNc4ccnc(NC(=O)[C@H]5C[C@@H]5c5cccc(Cl)c5)n4)nc23)CC1 [Example 88, (1S,2S)-2-(3-chlorophenyl)-N-(4-(((6-cyclopropyl-8-(4-methylpiperazin-1-yl)imidazo[1,2-a]pyridin-2-yl)methyl)amino)pyrimidin-2-yl)cyclopropane-1-carboxamide] | > 9.00 | 400 to 1500 |
| Cc1ccnc([C@H]2C[C@@H]2C(=O)Nc2cc(N(C)Cc3cn4cc(C5CC5)cc(N5CC(=O)N(CC(C)(C)O)C5=O)c4n3)ncn2)n1 [Example 368, (1S,2S)-N-(6-(((6-cyclopropyl-8-(3-(2-hydroxy-2-methylpropyl)-2,4-dioxoimidazolidin-1-yl)imidazo[1,2-a]pyridin-2-yl)methyl)(methyl)amino)pyrimidin-4-yl)-2-(4-methylpyrimidin-2-yl)cyclopropane-1-carboxamide] | > 9.00 | < 400 |
